In general, Kp refers to tissue or fluid exposure divided by exposure in the circulation. What is called clearance is a measure of how efficiently the substance is removed, as volume per time. The low end stands for a low capacity for elimination, the high end for a high capacity for elimination. Usually IC50 stands for the point on the concentration scale where inhibition reaches its midpoint.

Series [1] has as its system SNL-induced mouse model of neuropathic pain. Put plainly: Spinal nerve ligation (SNL)-induced mouse model of neuropathic pain, mechanical pain threshold (MPT). Format: in vivo, C57BL/6J mice. The settings on record: 10 mg/kg intragastrically, single administration. An excerpt: Male C57BL/6J mice (8 weeks old) purchased from Jinan Pengyue Experimental Animal Breeding Co., Ltd. were adaptively raised for one week and then the models were established. The specific establishment method comprises the following steps: • 1) disinfecting the surgical instrument and ligature; • 2) anesthetizing the mice with isoflurane and then placing the mice on the operating table in the prone position; • 3) shaving the fur near the hip bones of the mice and preparing the skin, and making an incision of about 2 cm along the spine; • 4) isolating the fascia along the spine, performing blunt dissection of the muscles, and exposing the transverse process of L5; • 5) carefully cutting the transverse process of L5 with forceps and exposing the L5 spinal nerve; • 6) carefully isolating the L5 nerve with a glass dissecting needle, and ligating the L5 nerve with a 5-0 ligature; and • 7) suturing the muscles and skin and disinfecting same with iodophor.
The mice that were unsuccessful in modeling were eliminated the next day after modeling (marker for successful modeling: mice with their hind paws curled up). After modeling, the mice were stroked for 3 to 5 minutes every day to ensure that the animals were familiar with the experimenter, and then the mice were placed on a metal pain measuring frame for 40 to 60 minutes of adaptation. After 3 days of acclimatization, Von Frey filaments (Aesthesio®; 0.16 g, 0.4 g, 0.6 g, 1.0 g, 1.4 g and 2.0 g) were used to test the pre-administration baseline values of the animals (Ascending testing approach). Each animal was tested twice and average values were taken, with intervals of at least 5 minutes. The animals were grouped according to the baseline values (10 animals per group). After the grouping, LX-9211 (1 and 10 mg/kg), compound 3 (1 and 10 mg/kg) or vehicle (40% PEG-400+10% ethanol+15% Tween 80+35% physiological saline) were administered intragastrically. The mice were tested for the mechanical pain threshold (MPT) at 1, 3 and 6 hours after the administration. Time-MPT curve was plotted using GraphPad 8.3.0, and statistical analysis was performed.

Series [2] can be described thus: Mouse brain/blood ratio test. Format: in vivo. To be noted: ICR mice, i.g. (10 mg/kg). How it is done: 5.1 Experimental animals: Male ICR mice, 20-25 g, 9 mice/compound. Purchased from Chengdu Ddossy Experimental Animals Co., Ltd.
5.2 Experimental design: on the day of the experiment, 18 ICR mice were randomly grouped according to their body weights. The animals were fasted with water available for 12 to 14 h one day before the administration, and were fed 4 h after the administration;
After intragastric administration, whole blood and brain tissue were collected at 0.5 h, 4 h and 24 h, and the whole blood was centrifuged to separate the plasma. The brain tissue was rinsed with cold physiological saline to remove the residual blood on the surface, drained out and then homogenized. Before analysis and detection, all samples were stored at −80° C. The samples were analyzed quantitatively by LC-MS/MS.

Series [3] in a line: Pharmacokinetic test in beagle dogs. Format: in vivo. How it is done: Experimental animals: male beagle dogs, about 8-11 kg, 6 beagle dogs/compound, purchased from Beijing Marshall Biotechnology Co., Ltd.
Experimental method: on the day of the experiment, 12 beagle dogs were randomly grouped according to their body weights. the animals were fasted with water available for 12 to 14 h one day before the administration, and were fed 4 h after the administration; and the administration was performed according to Table 2.
Before and after the administration, 1 ml of blood was taken from the jugular veins or limb veins, and placed in an EDTAK2 centrifuge tube. Centrifugation was performed at 5000 rpm at 4° C. for 10 min, and plasma was collected. Blood sampling time points for both the LX9211 intravenous administration group and intragastric administration group include: 0 min, 5 min, 15 min, 30 min, 1 h, 2 h, 4 h, 6 h, 8 h, 10 h, 12 h, and 24 h, and blood sampling time points for both the compound 19 intravenous administration group and intragastric administration group include: 0 min, 5 min, 15 min, 30 min, 1 h, 2 h, 4 h, 6 h, 8 h, 10 h, 12 h, 24 h, and 48 h. Before analysis and detection, all samples were stored at −80° C. The samples were analysed quantitatively by LC-MS/MS.

The target of series [4] is hERG potassium ion channel (Homo sapiens (Human), UniProt Q12809). Put plainly: Test for hERG potassium ion channel (manual whole cell patch-clamp). Format: cell-based. An excerpt:
Experimental platform: electrophysiological manual patch-clamp system
Cell line: Chinese hamster ovary (CHO) cell lines stably expressing hERG potassium ion channel
Experimental method: In CHO (Chinese Hamster Ovary) cells stably expressing hERG potassium channel, whole cell patch-clamp technique was used to record hERG potassium channel current at room temperature. The glass microelectrode was made of a glass electrode blank (BF150-86-10, Sutter) by a puller. The tip resistance after filling the liquid in the electrode was about 2-5 MΩ. The glass microelectrode can be connected to the patch-clamp amplifier by inserting the glass microelectrode into an amplifier probe. The clamping voltage and data recording were controlled and recorded by the pClamp 10 software through a computer. The sampling frequency was 10 kHz, and the filtering frequency was 2 kHz. After the whole cell records were obtained, the cells were clamped at −80 mV, and the step voltage that induced the hERG potassium current (IhERG) was depolarized from −80 mV to +20 mV for 2 s, then repolarized to −50 mV, and returned to −80 mV after 1 s. This voltage stimulation was given every 10 s, and the administration process was started after the hERG potassium current was confirmed to be stable (at least 1 minute). The compound was administered for at least 1 minute at each test concentration, and at least 2 cells (n≥2) were tested at each concentration.
Data processing: Data analysis processing was carried out by using pClamp 10, GraphPad Prism 5 and Excel software. The inhibition degree of hERG potassium current (peak value of hERG tail current induced at −50 mV) at different compound concentrations was calculated by the following formula: […]
wherein, Inhibition % represents the percentage of inhibition of hERG potassium current by the compound, and I and Io represent the amplitude of hERG potassium current after and before dosing, respectively.
Compound IC50 was calculated using GraphPad Prism 5 software by fitting according to the following equation: […]
Among the equation, X represents the Log value of the tested concentration of the test sample, Y represents the inhibition percentage at the corresponding concentration, and Bottom and Top represent the minimum and maximum inhibition percentage, respectively.
(In general: The hERG channel carries a current that helps repolarise heart muscle cells.)

The mark [5] stands for this setting: male, dog, iv, plasma, i.v. (1 mg/kg).

Each structure is given as a SMILES string.

Sequence of hERG potassium ion channel (Q12809 whole entry): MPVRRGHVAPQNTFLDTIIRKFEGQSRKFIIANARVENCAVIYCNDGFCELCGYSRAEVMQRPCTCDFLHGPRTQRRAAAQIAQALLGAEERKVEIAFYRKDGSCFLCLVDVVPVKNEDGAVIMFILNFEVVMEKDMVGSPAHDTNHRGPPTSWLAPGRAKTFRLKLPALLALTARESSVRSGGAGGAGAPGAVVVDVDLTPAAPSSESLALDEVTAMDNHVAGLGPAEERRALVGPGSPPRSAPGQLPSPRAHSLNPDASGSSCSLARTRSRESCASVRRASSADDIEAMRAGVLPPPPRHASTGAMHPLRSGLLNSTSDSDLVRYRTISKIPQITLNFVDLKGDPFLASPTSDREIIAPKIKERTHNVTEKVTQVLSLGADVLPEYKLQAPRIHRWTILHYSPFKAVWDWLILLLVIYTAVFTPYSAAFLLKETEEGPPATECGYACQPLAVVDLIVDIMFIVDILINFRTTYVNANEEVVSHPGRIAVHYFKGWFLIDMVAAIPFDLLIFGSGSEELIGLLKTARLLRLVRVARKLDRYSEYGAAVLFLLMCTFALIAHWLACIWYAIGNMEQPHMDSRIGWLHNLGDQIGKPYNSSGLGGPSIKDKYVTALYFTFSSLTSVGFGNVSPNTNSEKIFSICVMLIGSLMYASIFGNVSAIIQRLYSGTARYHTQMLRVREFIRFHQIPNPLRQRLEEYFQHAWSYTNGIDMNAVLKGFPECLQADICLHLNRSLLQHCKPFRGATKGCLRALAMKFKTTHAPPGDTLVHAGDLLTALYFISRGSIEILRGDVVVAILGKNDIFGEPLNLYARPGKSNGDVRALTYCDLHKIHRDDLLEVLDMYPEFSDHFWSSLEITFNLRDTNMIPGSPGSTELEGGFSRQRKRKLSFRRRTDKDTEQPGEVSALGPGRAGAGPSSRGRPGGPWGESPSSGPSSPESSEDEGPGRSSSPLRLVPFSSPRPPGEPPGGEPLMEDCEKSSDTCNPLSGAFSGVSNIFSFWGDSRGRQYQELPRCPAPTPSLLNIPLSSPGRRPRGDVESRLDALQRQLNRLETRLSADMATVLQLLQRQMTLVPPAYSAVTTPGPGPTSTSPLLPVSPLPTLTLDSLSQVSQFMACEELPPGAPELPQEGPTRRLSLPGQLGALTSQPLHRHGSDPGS

Take `CC(C)C[C@](C)(N)COc1ccc(-c2ccnc(C(F)F)c2)nc1C(F)F` [LX-9211, reference compound]: in series [1], the “Time at which analgesic efficacy reached the peak after the administration” value was found to be 1 h. The “Effect on pain threshold (MPT) of mice after SNL modelling” value in series [1] (1, 3 and 6 hours after administration) is “effectively increased the pain threshold”. The “Brain tissue AUC0-t” value in series [2] is 110424 ng·h/g. Besides, in series [2] (male, mouse, brain/plasma, po), the Kp turned out to be 16.6. The AUC(0-t) came to 6640 ng·h/mL in series [2] (male, mouse, plasma, po, read-out: Plasma AUC0-t); 751 ± 204 ng·h/mL in series [3] (setting [5]); 500 ± 183 ng·h/mL in series [3] (male, dog, po, plasma, i.g. (3 mg/kg)). Moreover, the F in series [3] (i.g. (3 mg/kg)) is on record as 22.2 ± 8.1%. In series [3] (setting [5]), this compound yielded a clearance of 22.2 ± 7.7 mL/min/kg. For the same compound, the Vd in series [3] (male, dog, iv, plasma, i.v. (1 mg/kg), read-out: Vdss) came out at 9.08 ± 1.4 L/kg. Further, in series [4] (CHO cells stably expressing hERG, read-out: IC50 (hERG potassium channel current)), the concentration for half-maximal inhibition (IC50) came out at 1820 nM. Moreover, in series [4] (human, CHO cells stably expressing hERG potassium channel, 40 μM, read-out: Inhibition rate at the highest concentration tested (hERG potassium channel current)), the inhibition at 40 µM amounted to 102 ± 4.08%.

These data come from US20240343720A1, “AAK1 INHIBITOR AND USE THEREOF” (Xizang Haisco Pharmaceutical Co., Ltd., priority 2021, published 2024).
